Data reported in patent publication US20240076279A1, “NOVEL BENZOAZEPINE COMPOUND, AND COMPOSITION AND USE THEREOF” (XUZHOU MEDICAL UNIVERSITY, priority 2021, published 2024).

Tests used:
MDCK cells = test: PKD vesicle experiment (forskolin-induced vesicles of MDCK cells in matrigel); type: cell-based; conditions: 10 μM Forsklin, day 12
Procedure: The vesicles similar to those in PKD disease are formed by using MDCK cells under the action of AC enzyme agonist forskolin to simulate the occurrence and development of the disease, and the test compounds are respectively administered to observe their effects on the vesicles.
The MDCK cells were cultured at 37° C./5% CO2, with DMEM F12 medium (purchased from Combio technology company) supplemented with 10% fetal bovine serum and 1% double antibody.
During the re-cooling of matrigel, MDCK cells were digested and counted. […] The cells were incubated for 12 days, in which the medium was changed every 12 h, and photos were taken at days 4, 6, 8, 10, and 12. The photo area was selected to track the specific vesicles.
The diameters of vesicles were compared on day 12 to assess the effect of test compounds.

PKD1 knockout mice = test: PKD mouse experiment; type: in vivo; conditions: 2 mg/kg subcutaneous injection, seven days of administration
Description: Such compounds have antagonistic effects on arginine vasopressin receptors, and can inhibit the effect of cAMP in vivo, thereby inhibiting the occurrence and development of PKD. In this experiment, PKD1 knockout mice were used to evaluate the efficacy of these compounds.
1. Numbering the mice to perform gene identification: After 3 days of birth, the mice were marked by the method of cutting toes. The cut toes were placed in EP tubes marked in advance to boil, and then the genes were identified by agarose electrophoresis after PCR.
2. Preparation of corresponding medicaments: The corresponding weights of drugs were precisely weighed with an electronic balance and placed in new EP tubes. Then the corresponding amounts of HPMC were added with a pipette to prepare the medicaments of the desired concentration.
3. Administration to mice: The administrations of medicaments to mice was started on Day 6 or 5 after birth (the underweight mice were administered with medicaments on Day 6, and the rest of mice were administered with medicaments on Day 5), and the administration time was fixed (for example, 9:00 am). […]
5. Data processing: The total weight of the left and right kidneys, and the proportion of the kidneys, etc. were calculated.

human V2R = human V2R (Homo sapiens, UniProt P30518); conditions: for residence time: read-out: RT (residence time of the compound to be tested on cells); for koff: read-out: koff (dissociation constant between the compound to be tested and cells); for kon: read-out: kon (association constant between the compound to be tested and cells)
Sequence of human V2R (P30518 whole entry): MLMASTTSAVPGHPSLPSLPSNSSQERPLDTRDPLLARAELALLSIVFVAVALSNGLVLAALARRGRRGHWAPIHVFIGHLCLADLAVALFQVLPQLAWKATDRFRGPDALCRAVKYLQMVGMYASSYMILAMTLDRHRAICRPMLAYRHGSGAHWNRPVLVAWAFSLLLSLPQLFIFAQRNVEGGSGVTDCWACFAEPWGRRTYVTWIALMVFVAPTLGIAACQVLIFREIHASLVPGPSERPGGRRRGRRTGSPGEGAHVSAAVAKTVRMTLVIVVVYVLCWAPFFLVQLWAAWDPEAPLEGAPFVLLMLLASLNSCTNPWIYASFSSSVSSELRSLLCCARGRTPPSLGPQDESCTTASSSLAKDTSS

ADPKD patients = conditions: cited from earlier work

| SMILES | The diameter of vesicles (MDCK cells) [μm] | Proportion of the kidneys % (PKD1 knockout mice) [%] | residence time (human V2R) [min] | koff (human V2R) [s⁻¹] | kon (human V2R) [M⁻¹ s⁻¹] | affinity to V2R compared with Tolvaptan (human V2R; text summary of Table 7) | residence time with receptor compared with Tolvaptan (human V2R; text summary of Table 7) | Ki (human V2R) [nM] | serum hepatic transaminases (ADPKD patients; clinical trials, some patients) | excretion rate of sodium and urea (ADPKD patients; prospective study, 30 ADPKD patients, after administration) |
| --- | --- | --- | --- | --- | --- | --- | --- | --- | --- | --- |
| Cc1ccccc1C(=O)Nc1ccc(C(=O)N2CCCC(NCCCN3CCOCC3)c3cc(Cl)ccc32)c(C)c1 (stereo not drawn) [Compound 1, N-(4-(7-chloro-5-((3-morpholinopropyl)amino)-2,3,4,5-tetrahydro-1H-benzo[b]azepine-1-carbonyl)-3-methylphenyl)-2-methylbenzamide] | 172.0 | 11.85 | – | – | – | – | – | – | – | – |
| Cc1ccccc1C(=O)Nc1ccc(C(=O)N2CCCC(NCCCCN3CCOCC3)c3cc(Cl)ccc32)c(C)c1 (stereo not drawn) [Compound 2, N-(4-(7-chloro-5-((4-morpholinobutyl)amino)-2,3,4,5-tetrahydro-1H-benzo[b]azepine-1-carbonyl)-3-methylphenyl)-2-methylbenzamide] | – | – | 12 ± 2 | 0.00135 | 160000 | – | – | – | – | – |
| Cc1ccccc1C(=O)Nc1ccc(C(=O)N2CCCC(NCCCCCN3CCOCC3)c3cc(Cl)ccc32)c(C)c1 (stereo not drawn) [Compound 3, N-(4-(7-chloro-5-((5-morpholinopentyl)amino)-2,3,4,5-tetrahydro-1H-benzo[b]azepine-1-carbonyl)-3-methylphenyl)-2-methylbenzamide] | – | – | 14 ± 2 | 0.00118 | 105000 | – | – | – | – | – |
| Cc1ccccc1C(=O)Nc1ccc(C(=O)N2CCCC(NCCN3CCOCC3)c3cc(Cl)ccc32)c(C)c1 (stereo not drawn) [Compound 4, N-(4-(7-chloro-5-((2-morpholinoethyl)amino)-2,3,4,5-tetrahydro-1H-benzo[b]azepine-1-carbonyl)-3-methylphenyl)-2-methylbenzamide] | – | – | 21 ± 2 | 0.000783 | 333000 | comparable to the affinity of Tolvaptan | longer residence time with receptor than Tolvaptan | – | – | – |
| Cc1ccccc1C(=O)Nc1ccc(C(=O)N2CCCC(NCCCc3ccncc3)c3cc(Cl)ccc32)c(C)c1 (stereo not drawn) [Compound 5, N-(4-(7-chloro-5-((3-(pyridin-4-yl)propyl)amino)-2,3,4,5-tetrahydro-1H-benzo[b]azepine-1-carbonyl)-3-methylphenyl)-2-methylbenzamide] | – | – | 13 ± 1 | 0.00125 | 165000 | comparable to the affinity of Tolvaptan | – | – | – | – |
| Cc1ccccc1C(=O)Nc1ccc(C(=O)N2CCCC(NCCC(=O)N3CCOCC3)c3cc(Cl)ccc32)c(C)c1 (stereo not drawn) [Compound 13, N-(4-(7-chloro-5-((3-morpholino-3-oxopropyl)amino)-2,3,4,5-tetrahydro-1H-benzo[b]azepine-1-carbonyl)-3-methylphenyl)-2-methylbenzamide] | – | – | 9 ± 1 | 0.00183 | 683000 | comparable to the affinity of Tolvaptan | – | – | – | – |
| Cc1ccccc1C(=O)Nc1ccc(C(=O)N2CCCC(NCCCN3CCN(C)CC3)c3cc(Cl)ccc32)c(C)c1 (stereo not drawn) [Compound 17, N-(4-(7-chloro-5-((3-(4-methylpiperazin-1-yl)propyl)amino)-2,3,4,5-tetrahydro-1H-benzo[b]azepine-1-carbonyl)-3-methylphenyl)-2-methylbenzamide] | – | – | 7 ± 1 | 0.00233 | 350000 | – | – | – | – | – |
| Cc1ccccc1C(=O)Nc1ccc(C(=O)N2CCCC(NCCOc3ccccc3)c3cc(Cl)ccc32)c(C)c1 (stereo not drawn) [Compound 21, N-(4-(7-chloro-5-((2-phenoxyethyl)amino)-2,3,4,5-tetrahydro-1H-benzo[b]azepine-1-carbonyl)-3-methylphenyl)-2-methylbenzamide] | – | – | 17 ± 2 | 0.001 | 18300 | – | – | 77 ± 26 | – | – |
| Cc1ccccc1C(=O)Nc1ccc(C(=O)N2CCCC(NCCCCCOc3ccccc3)c3cc(Cl)ccc32)c(C)c1 (stereo not drawn) [Compound 24, N-(4-(7-chloro-5-((5-phenoxypentyl)amino)-2,3,4,5-tetrahydro-1H-benzo[b]azepine-1-carbonyl)-3-methylphenyl)-2-methylbenzamide] | – | – | 7 ± 1 | 0.0025 | 183000 | – | – | 31 ± 7 | – | – |
| Cc1ccccc1C(=O)Nc1ccc(C(=O)N2CCCC(O)c3cc(Cl)ccc32)c(C)c1 (stereo not drawn) [Tolvaptan, tolvaptan, reference compound] | 183.7 | 15.80 | – | – | – | – | – | – | increased to more than three times the normal level | increased |
